From patent US4624695A, “O-diaminophosphinyl derivatives of oximes as urease inhibitors” (Allied Corporation, priority 1983, dated 1986)

Tested on: soil urease
Assay: Efficacy test: urease inhibition in soil (urea remaining after incubation)
Format: biochemical
Conditions: 800 micrograms test compound and 42.8 mg urea per 20 g air-dry soil, incubated at 25° C. for three days, run in triplicate
Experimental: Efficacy tests were conducted to evaluate the efficacy of certain representative oximated O-diaminophosphinyl compounds as urease inhibitors. The inhibition tests were run in a New York soil (Cazenovia silt loam, pH 7.2) or in Wisconsin soil (Plano silt loam, pH 5.4). Evaluations (run in triplicate) consisted of applying 800 micrograms of the test compound in 5 mL of water and 42.8 mg of urea in 1 mL of water to 20 g of air-dry soil in a glass bottle. The bottle was capped with perforated aluminum foil and incubated at 25° C. for three days prior to extraction with 100 mL of a 2M potassium chloride solution containing 0.5 mg of phenylmercuric acetate. The extracts were then analyzed for remaining urea using an autoanalyzer. Percent inhibition was calculated as [formula] where A is urea recovered from unincubated sample (urea added to soil and immediately extracted); B is urea recovered from inhibited sample; and C is urea recovered from the control (uninhibited sample).

Q: How did the “% Inhibition, Cazenovia (pH 7.2)” value (New York soil (Cazenovia silt loam, pH 7.2)) turn out when `CC(C)=NOP(N)(N)=O` [O--(Diaminophosphinyl)-2-propanone Oxime, O-(Diaminophosphinyl)-2-propanone Oxime] was run?
A: 84%

Q: And the “% Inhibition, Wisconsin (pH 5.4)” value (Wisconsin soil (Plano silt loam, pH 5.4))?
A: 53%
